The NIST ThermoML archive (doi:10.1021/je100552a)

What was measured:
[1] = xn = mol fraction of the nth substance listed; details: 101 kPa, Liquid; for viscosity: Capillary tube (Ostwald / Ubbelohde) method
[2] = refractive index (Na D-line) (dimensionless); xn = mol fraction of the nth substance listed; details: 101 kPa, Liquid, Standard Abbe refractometry

Brc1ccccc1 [bromobenzene] + ClCCCl
Details | refractive index, 298.15 K | refractive index, 303.15 K | refractive index, 308.15 K | refractive index, 313.15 K | viscosity, 298.15 K [mPa·s] | viscosity, 303.15 K [mPa·s] | viscosity, 308.15 K [mPa·s] | viscosity, 313.15 K [mPa·s]
[1], x2 = 0.1014 | – | – | – | – | 1.041 | 0.9749 | 0.9162 | 0.8463
[1], x2 = 0.2002 | – | – | – | – | 1.004 | 0.9388 | 0.8809 | 0.8155
[1], x2 = 0.3004 | – | – | – | – | 0.9677 | 0.904 | 0.8474 | 0.787
[1], x2 = 0.3999 | – | – | – | – | 0.9348 | 0.8714 | 0.815 | 0.7607
[1], x2 = 0.5008 | – | – | – | – | 0.9036 | 0.8409 | 0.7839 | 0.7355
[1], x2 = 0.6001 | – | – | – | – | 0.8752 | 0.8141 | 0.7583 | 0.712
[1], x2 = 0.6999 | – | – | – | – | 0.8496 | 0.7886 | 0.7321 | 0.6917
[1], x2 = 0.7995 | – | – | – | – | 0.8268 | 0.7646 | 0.711 | 0.6728
[1], x2 = 0.8998 | – | – | – | – | 0.8058 | 0.7445 | 0.6904 | 0.6569
[2], x2 = 0.1014 | 1.5479 | 1.5439 | 1.5412 | 1.5372 | – | – | – | –
[2], x2 = 0.2002 | 1.5398 | 1.5355 | 1.5321 | 1.5279 | – | – | – | –
[2], x2 = 0.3004 | 1.5313 | 1.5266 | 1.5227 | 1.5182 | – | – | – | –
[2], x2 = 0.3999 | 1.5218 | 1.517 | 1.5128 | 1.5079 | – | – | – | –
[2], x2 = 0.5008 | 1.5107 | 1.506 | 1.5015 | 1.4967 | – | – | – | –
[2], x2 = 0.6001 | 1.4984 | 1.494 | 1.4893 | 1.4849 | – | – | – | –
[2], x2 = 0.6999 | 1.4847 | 1.4808 | 1.4761 | 1.4722 | – | – | – | –
[2], x2 = 0.7995 | 1.4704 | 1.4671 | 1.4622 | 1.459 | – | – | – | –
[2], x2 = 0.8998 | 1.4559 | 1.4528 | 1.4479 | 1.4452 | – | – | – | –

mass density [kg/m3], [1], Vibrating tube method
Details | x2 = 0.1014 | x2 = 0.2002 | x2 = 0.3004 | x2 = 0.3999 | x2 = 0.5008 | x2 = 0.6001 | x2 = 0.6999 | x2 = 0.7995 | x2 = 0.8998
298.15 K | 1469.57 | 1449.41 | 1428.09 | 1406.01 | 1382.5 | 1358.18 | 1332.44 | 1305.43 | 1276.72
303.15 K | 1461.55 | 1441.65 | 1420.51 | 1398.59 | 1375.26 | 1351.21 | 1325.77 | 1299.12 | 1270.73
308.15 K | 1455.77 | 1435.38 | 1413.75 | 1391.37 | 1367.54 | 1342.97 | 1317.02 | 1289.84 | 1260.96
313.15 K | 1447.63 | 1427.53 | 1406.26 | 1384.19 | 1360.71 | 1336.5 | 1310.92 | 1284.14 | 1255.65

Clc1ccccc1 [chlorobenzene] + ClCCCl
Details | mass density, [1] [kg/m3] | refractive index, [2] | viscosity, [1] [mPa·s]
298.15 K, x2 = 0.1022 | 1111.56 | 1.5149 | 0.7456
298.15 K, x2 = 0.2015 | 1123.05 | 1.508 | 0.7387
298.15 K, x2 = 0.3013 | 1135.29 | 1.5012 | 0.7351
298.15 K, x2 = 0.4039 | 1148.64 | 1.4935 | 0.7364
298.15 K, x2 = 0.4999 | 1161.91 | 1.486 | 0.7372
298.15 K, x2 = 0.5977 | 1176.36 | 1.4781 | 0.741
298.15 K, x2 = 0.6986 | 1192.24 | 1.4696 | 0.7445
298.15 K, x2 = 0.8 | 1209.3 | 1.4607 | 0.7536
298.15 K, x2 = 0.899 | 1227.12 | 1.4516 | 0.7659
303.15 K, x2 = 0.1022 | 1106.04 | 1.512 | 0.7146
303.15 K, x2 = 0.2015 | 1117.48 | 1.5052 | 0.7049
303.15 K, x2 = 0.3013 | 1129.68 | 1.4983 | 0.6991
303.15 K, x2 = 0.4039 | 1142.96 | 1.4908 | 0.6969
303.15 K, x2 = 0.4999 | 1156.2 | 1.4832 | 0.6963
303.15 K, x2 = 0.5977 | 1170.62 | 1.4752 | 0.6973
303.15 K, x2 = 0.6986 | 1186.46 | 1.4666 | 0.6975
303.15 K, x2 = 0.8 | 1203.48 | 1.4576 | 0.7009
303.15 K, x2 = 0.899 | 1221.28 | 1.4484 | 0.71
308.15 K, x2 = 0.1022 | 1100.15 | 1.509 | 0.6659
308.15 K, x2 = 0.2015 | 1111.22 | 1.5022 | 0.6595
308.15 K, x2 = 0.3013 | 1123.02 | 1.4951 | 0.6542
308.15 K, x2 = 0.4039 | 1135.91 | 1.4873 | 0.6505
308.15 K, x2 = 0.4999 | 1148.68 | 1.4797 | 0.6506
308.15 K, x2 = 0.5977 | 1162.62 | 1.4715 | 0.65
308.15 K, x2 = 0.6986 | 1177.92 | 1.4626 | 0.6493
308.15 K, x2 = 0.8 | 1194.4 | 1.4534 | 0.653
308.15 K, x2 = 0.899 | 1211.62 | 1.444 | 0.6574
313.15 K, x2 = 0.1022 | 1094.68 | 1.5049 | 0.619
313.15 K, x2 = 0.2015 | 1105.79 | 1.4983 | 0.6151
313.15 K, x2 = 0.3013 | 1117.62 | 1.4915 | 0.6143
313.15 K, x2 = 0.4039 | 1130.48 | 1.4838 | 0.6119
313.15 K, x2 = 0.4999 | 1143.37 | 1.4763 | 0.6125
313.15 K, x2 = 0.5977 | 1157.36 | 1.4682 | 0.6158
313.15 K, x2 = 0.6986 | 1172.73 | 1.4595 | 0.6191
313.15 K, x2 = 0.8 | 1189.28 | 1.4503 | 0.6241
313.15 K, x2 = 0.899 | 1206.59 | 1.441 | 0.6314
